According to article PMC4741438, “Targeting the SIN3A-PF1 interaction inhibits epithelial to mesenchymal transition and maintenance of a stem cell phenotype in triple negative breast cancer” (Oncotarget, 2015):
One block for each compound: values may come before it. Peptide text beside a SMILES is read from it.

Key:
[1] = system: H3K4me3 at the CDH1 and ESR1 promoters; design: method as in PMID 20547842; settings: SID peptide, longer time period; cited from earlier work
4T1 cells = assay: Lung metastasis of 4T1 cells in Balb/c mice; type: in vivo, mouse
Protocol: 4T1 cells were treated for 14 days with water, Tat-Scr (2.5 μM) or Tat-SID (1 & 2.5 μM) and then inoculated orthotopically in the inguinal mammary gland of Balb/c mice (n = 5). […] Tumor volumes were calculated as ellipsoids (Dxd^2/2) by measuring the main diameter (D) and the smaller diameter (d) and plotted versus time (days). The experiment was stopped when tumors in the control group reached ∼500 mm^3, then, the mice were sacrificed, tumors were isolated for weight and lungs were isolated for metastatic foci analysis. Similar experiment was also performed using MMTV-Myc cells. In another set of experiments 4T1 cells stably transfected with Scr-shRNA or PF1-shRNA were inoculated in interscapular space of Balb/c mice (n = 10). […] Tumor-free survival was calculated from Kaplan-Meier curves, and statistical significance was determined using the log-rank test for survival and the t-test for tumor growth. Metastatic dissemination was evaluated by dissecting the lungs from sacrificed mice and inspecting the Bouin-fixed (Sigma) lung surface for lesions using a stereoscope (Nikon SMZ800 stereoscope X3 to X5). […] After 6 days, the number of colonies formed (each originating from a single tumor cell) were counted to evaluate the number of disseminated tumor cells (DTCs). To evaluate DTC proliferation, the number of cells per colony were counted using ImageJ software.

MDA-MB-231 cells [2] = assay: 3D culture colony morphogenesis of MDA-MB-231; type: cell-based, human; settings: 3D matrigel, 10 days
Protocol: MDA-MB-231 cells were cultured on 8 chambered wells (BD Biosciences) and fixed with 4% paraformaldehyde/PBS for 15 min at room temperature. For 3D cultures cells were seeded (3 × 10^3/well) in quadruplicate onto Matrigel (BD Biosciences) or Cultrex basement membrane extracts (Trevigen) in 8-well culture slides to prepare three-dimensional cultures as described earlier. […] Colony morphology was determined by phase-contrast microscopy. For immunostaining, cells were permeabilized with 0.5% Triton X-100/PBS and blocked with 10% normal goat serum (Invitrogen) in PBS for 1 h. Primary antibodies were incubated overnight at 4°C in blocking buffer and washed 3 times with washing buffer (0.05% Triton X-100/PBS) and once with PBS. Secondary antibodies (dilution 1:200 in 1% normal goat serum/PBS) were added for 1 h and then washed. The samples were then mounted with ProLong Gold antifade reagent with DAPI (Molecular Probes/Invitrogen, CA), following the manufacturer instructions. All incubations and washes were done at 4 or 25°C as required. Confocal microscopy was performed using a Leica SP5 confocal microscope at the Shared Instrumentation facility of department of Hematology at Mount Sinai School of Medicine, NY.

MDA-MB-231 cells [3] = assay: Aldefluor ALDH1 activity in MDA-MB-231; type: cell-based, human; settings: 1 μM, 72 h; mean of three independent experiments; p = 0.0395
Protocol: (§1) For aldehyde dehydrogenase assay, cells were dissociated with PBS-EDTA and tested for ALDH activity (2 × 10^5 cells/sample), using the Aldefluor assay (Aldegen) according to the manufacturer's instructions. For CD44 and CD24 antigens, cells were dissociated with Accutase, washed with PBS and incubated with PE-conjugated anti-CD24 and APC-conjugated anti-CD44 antibodies (BD Biosciences) for 40 minutes in ice. For quantification of NANOG, OCT4 and SOX2 dissociated cells were fixed with 1% paraformaldehyde (15 min at RT), permeabilized with 0.5% TritonX100 (10 min at RT) and incubated with 1:100 diluted antibodies against NANOG, OCT4 and SOX2 (Cell Signaling) for 1 h at room temperature. The cells were then washed and incubated with fluorophore-conjugated secondary antibodies Abcam). FACS analysis was carried out using a FACScanto flow cytometer, DIVA software program for acquisition (BD Biosciences) and FlowJo (Treestar.) software for analysis.

MDA-MB-231 cells [4] = assay: FACS CD44/CD24 in MDA-MB-231; type: cell-based, human; settings: 1 μM, 72 h; mean of three independent experiments; p = 0.01
Protocol: as §1

PAH2 domain of SIN3A = biological target: T1, PAH2 domain of SIN3A (Mus musculus, UniProt Q60520); assay: Fluorescence anisotropy competition assay, FITC-labeled Mad1 peptide probe; settings: 70 nM PAH2 domain, 10 nM probe, PBS pH 7.4, 0.01% BSA, 1 h, 25°C; read-out: IC50, competition for binding to FITC-labeled MAD probe
T1 construct: The PAH2 domain of mSin3A was overexpressed in the E. coli BL21 (DE3) codon plus RIL strain; His tag (inferred from Ni2+ chelating column); made in house; host or cells: E. coli BL21 (DE3) codon plus RIL
T1 sequence (Q60520 300-383 limits assumed): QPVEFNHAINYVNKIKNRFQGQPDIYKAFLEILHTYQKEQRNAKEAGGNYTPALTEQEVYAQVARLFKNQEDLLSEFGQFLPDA
Protocol: The PAH2 domain of mSin3A was overexpressed in the E. coli BL21 (DE3) codon plus RIL strain (Stratagene) by addition of 1 mM isopropyl-1-thio-D-galactopyranoside and incubation overnight at 15°C. Harvested cells were re-suspended in 50 mM sodium phosphate buffer, pH 7.4, supplemented with 500 mM sodium chloride, 5% glycerol, and 0.1% Igepal CA-630 and lysed using a microfluidizer (Micro-fluidics) at 20,000 psi. After clarification of the crude extract by high-speed centrifugation, the lysate was loaded onto a 5 ml HiTrap chelating column (GE Healthcare) charged with Ni2+. The column was washed and the protein was eluted with 30 mM HEPES pH 7.4, 250 mM sodium chloride, and 250 mM imidazole. The protein was next purified on a Superdex75 column (GE Healthcare) equilibrated with 20 mM Tris-HCl buffer, pH 8.0, and 150 mM sodium chloride. Fractions containing the pure protein were combined and concentrated with 3 kDa MWCO centrifugal filters (Amicon).
The binding affinity of pSID for SIN3A was assessed in a fluorescence anisotropy competition assay using a fluorescein isothiocyanate-labeled Mad1 peptide as an assay probe. […] Measurements were obtained after a 1 h incubation of the fluorescent ligand and the protein at 25°C with a Safire 2 microplate reader (Tecan). […]

Compound: SID peptide: SID peptide expressed from a plasmid vector over a longer time period (previous study) (YGRKKRRQGGGVRMNIQMLLEAADYLERRER)
H3K4me3 at CDH1 and ESR1 promoters [1]: dramatic increases in H3K4^me3

Compound: YGRKKRRQGGG-EQRARRIMERLLEYNMVADL [Tat-Scr]
number of lung metastasis, median (4T1 cells; 4T1 treated ex vivo with 2.5 μM, n = 5, Tat-SID p = 0.0446 versus Tat-Scr, vehicle 23): 13
decrease in lung metastasis versus vehicle (4T1 cells; Tat-Scr 2.5 μM, p = 0.2107): not statistically significant
colony morphology (MDA-MB-231 cells [2]): disorganized colonies with invasive projections
ALDH+ cells, mean (MDA-MB-231 cells [3]): 21.3%
CD44low/CD24low/neg population, mean (MDA-MB-231 cells [4]): 6.7%

IC50 (PAH2 domain of SIN3A): 1.26 µM
Compound: CC[C@H](C)[C@H](NC(=O)[C@H](CC(N)=O)NC(=O)[C@H](CCSC)NC(=O)[C@H](CCCNC(=N)N)NC(=O)[C@@H](NC(=O)CNC(=O)CNC(=O)CNC(=O)[C@H](CCC(N)=O)NC(=O)[C@H](CCCNC(=N)N)NC(=O)[C@H](CCCNC(=N)N)NC(=O)[C@H](CCCCN)NC(=O)[C@H](CCCCN)NC(=O)[C@H](CCCNC(=N)N)NC(=O)CNC(=O)[C@@H](N)Cc1ccc(O)cc1)C(C)C)C(=O)N[C@@H](CCC(N)=O)C(=O)N[C@@H](CCSC)C(=O)N[C@@H](CC(C)C)C(=O)N[C@@H](CC(C)C)C(=O)N[C@@H](CCC(=O)O)C(=O)N[C@@H](C)C(=O)N[C@@H](C)C(=O)N[C@@H](CC(=O)O)C(=O)N[C@@H](Cc1ccc(O)cc1)C(=O)N[C@@H](CC(C)C)C(=O)N[C@@H](CCC(=O)O)C(=O)N[C@@H](CCCNC(=N)N)C(=O)N[C@@H](CCCNC(=N)N)C(=O)N[C@@H](CCC(=O)O)C(=O)N[C@@H](CCCNC(=N)N)C(=O)O [Tat-SID] (H-YGRKKRRQGGGVRMNIQMLLEAADYLERRER-OH)

Compound: CC[C@H](C)[C@H](NC(=O)[C@H](CC(C)C)NC(=O)[C@H](CC(C)C)NC(=O)[C@H](CCC(=O)O)NC(=O)[C@H](Cc1ccccc1)NC(=O)[C@@H]1CCCN1C(=O)[C@H](CCCNC(=N)N)NC(=O)[C@H](CCCNC(=N)N)NC(=O)[C@H](CC(C)C)NC(=O)[C@H](CCC(N)=O)NC(=O)CNC(=O)CNC(=O)CNC(=O)[C@H](CCC(N)=O)NC(=O)[C@H](CCCNC(=N)N)NC(=O)[C@H](CCCNC(=N)N)NC(=O)[C@H](CCCCN)NC(=O)[C@H](CCCCN)NC(=O)[C@H](CCCNC(=N)N)NC(=O)CNC(=O)[C@@H](N)Cc1ccc(O)cc1)C(=O)N[C@@H](C)C(=O)N[C@@H](C)C(=O)N[C@@H](C)C(=O)N[C@@H](CCSC)C(=O)N[C@@H](CCC(=O)O)C(=O)N[C@@H](CCCNC(=N)N)C(=O)N[C@@H](CC(N)=O)C(=O)N1CCC[C@H]1C(=O)N[C@H](C(=O)N[C@@H](CCC(N)=O)C(=O)O)[C@@H](C)O [PF1-SID] (H-YGRKKRRQGGGQLRRPFELLIAAAMERNPTQ-OH)
IC50 (PAH2 domain of SIN3A): 15.6 µM
